Results taken from ChEMBL document CHEMBL4814024, “Microwave assisted regioselective synthesis of quinoline appended triazoles as potent anti-tubercular and antifungal agents via copper (I) catalyzed cycloaddition” (Bioorg Med Chem Lett, 2021).
Values after ≈ are worked out from the molar mass of the structure shown.

Tests used:
Aspergillus flavus = test: Antifungal activity against Aspergillus flavus; format: functional
[1] = Selectivity index, ratio of IC50 for cytotoxicity against human HEK293 cells to MIC for antimycobacterial activity against Mycobacterium tuberculosis H37Rv ATCC 27294; format: toxicity, cell-based; settings: read-out: Selectivity Index
[2] = test system: Mycobacterium tuberculosis; test: Antimycobacterial activity against Mycobacterium tuberculosis H37Rv ATCC 27294 assessed as reduction in bacterial growth by microplate alamar blue assay; format: functional
Aspergillus fumigatus = test: Antifungal activity against Aspergillus fumigatus; format: functional
Candida albicans = test: Antifungal activity against Candida albicans; format: functional
Aspergillus niger = test: Antifungal activity against Aspergillus niger; format: functional
HEK293 = test: Cytotoxicity against HEK293 cells by MTT assay; format: cell-based; settings: Homo sapiens
[3] = test system: Mycobacterium tuberculosis; test: Antimycobacterial activity against Mycobacterium tuberculosis H37Rv assessed as reduction in bacterial growth incubated for 5 days by MTT assay; format: functional; settings: 120 h, time 5 day
[4] = test system: Mycobacterium tuberculosis; test: Antimycobacterial activity against Mycobacterium tuberculosis; format: functional

Row | Compound | MIC (Aspergillus flavus) [µg/mL] | selectivity ratio [1] | MIC [2] [µg/mL] | MIC (Aspergillus fumigatus) [µg/mL] | MIC (Candida albicans) [µg/mL] | MIC (Aspergillus niger) [µg/mL] | IC50 (HEK293) [µg/mL] | MIC [3] [µg/mL] | MIC [4] [µg/mL]
1 | COc1ccc(-n2ncn(Cc3cn(Cc4cc5cc(Cl)ccc5nc4Cl)nn3)c2=O)cc1 | 0.2 (≈ 0.415 µM) | 340 | 3.12 (≈ 6.47 µM) | 3.12 (≈ 6.47 µM) | 0.2 (≈ 0.415 µM) | 0.2 (≈ 0.415 µM) | 1060 (≈ 2200 µM) |  | 
2 | NNC(=O)c1ccncc1 [ISONIAZID] |  |  | 1.6 (≈ 11.7 µM) |  |  |  |  |  | 
3 | COc1ccc(-n2ncn(Cc3cn(Cc4cc5cc(Br)ccc5nc4Cl)nn3)c2=O)cc1 | 0.2 (≈ 0.38 µM) | 53.2 | 6.25 (≈ 11.9 µM) | 3.12 (≈ 5.92 µM) | 0.2 (≈ 0.38 µM) | 0.2 (≈ 0.38 µM) | 333 (≈ 632 µM) |  | 
4 | O=c1n(Cc2cn(Cc3cc4cc(Br)ccc4nc3Cl)nn2)cnn1-c1ccccc1 | 0.2 (≈ 0.403 µM) | 66.1 | 25 (≈ 50.3 µM) | 3.12 (≈ 6.28 µM) | 0.2 (≈ 0.403 µM) | 0.2 (≈ 0.403 µM) | 1650 (≈ 3330 µM) |  | 
5 | OC(Cn1cncn1)(Cn1cncn1)c1ccc(F)cc1F [FLUCONAZOLE] | 25 (≈ 81.6 µM) |  |  |  | 25 (≈ 81.6 µM) | 25 (≈ 81.6 µM) |  |  | 
6 | COc1ccc(-n2ncn(Cc3cn(Cc4cc5ccccc5nc4Cl)nn3)c2=O)cc1 | 0.2 (≈ 0.447 µM) | 76.7 | 12.5 (≈ 27.9 µM) | 3.12 (≈ 6.97 µM) | 0.2 (≈ 0.447 µM) | 0.2 (≈ 0.447 µM) | 958 (≈ 2140 µM) |  | 
7 | COc1ccc(-n2ncn(Cc3cn(Cc4cc5cc(C)ccc5nc4Cl)nn3)c2=O)cc1 | 0.2 (≈ 0.433 µM) | 384 | 1.6 (≈ 3.46 µM) | 3.12 (≈ 6.75 µM) | 0.2 (≈ 0.433 µM) | 0.2 (≈ 0.433 µM) | 615 (≈ 1330 µM) |  | 
8 | COc1ccc(-n2ncn(Cc3cn(Cc4cc5cccc(C)c5nc4Cl)nn3)c2=O)cc1 | 0.2 (≈ 0.433 µM) | 366 | 1.6 (≈ 3.46 µM) | 3.12 (≈ 6.75 µM) | 0.2 (≈ 0.433 µM) | 0.2 (≈ 0.433 µM) | 586 (≈ 1270 µM) |  | 
9 | NC(=O)c1cnccn1 [PYRAZINAMIDE] |  |  | 6.25 (≈ 50.8 µM) |  |  |  |  |  | 
10 | Cc1cccc2cc(Cn3cc(Cn4cnn(-c5ccccc5)c4=O)nn3)c(Cl)nc12 | 0.2 (≈ 0.463 µM) | 234 | 1.6 (≈ 3.7 µM) | 3.12 (≈ 7.22 µM) | 0.2 (≈ 0.463 µM) | 0.2 (≈ 0.463 µM) | 729 (≈ 1690 µM) |  | 
11 | C[C@@H](N1CCN(c2ccc(-n3cnnn3)cc2)C1=O)[C@](O)(Cn1cncn1)c1ccc(F)cc1F |  |  |  | 1 (≈ 2.08 µM) |  |  |  |  | 
12 | O=c1n(Cc2cn(Cc3cc4cc(Cl)ccc4nc3Cl)nn2)cnn1-c1ccccc1 | 0.2 (≈ 0.442 µM) | 36.7 | 12.5 (≈ 27.6 µM) | 3.12 (≈ 6.9 µM) | 0.2 (≈ 0.442 µM) | 0.2 (≈ 0.442 µM) | 459 (≈ 1010 µM) |  | 
13 | Cc1ccc2nc(Cl)c(Cn3cc(Cn4cnn(-c5ccccc5)c4=O)nn3)cc2c1 | 0.2 (≈ 0.463 µM) | 153 | 3.12 (≈ 7.22 µM) | 3.12 (≈ 7.22 µM) | 0.2 (≈ 0.463 µM) | 0.2 (≈ 0.463 µM) | 478 (≈ 1110 µM) |  | 
14 | O=C(O)c1cn(C2CC2)c2cc(N3CCNCC3)c(F)cc2c1=O [CIPROFLOXACIN] |  |  | 3.12 (≈ 9.42 µM) |  |  |  |  |  | 
15 | COc1ccc(-n2ncn(Cc3cn(Cc4cc5ccc(Cl)cc5nc4Cl)nn3)c2=O)cc1 | 0.2 (≈ 0.415 µM) | 470 | 3.12 (≈ 6.47 µM) | 3.12 (≈ 6.47 µM) | 0.2 (≈ 0.415 µM) | 0.2 (≈ 0.415 µM) | 1460 (≈ 3040 µM) |  | 
16 | CCCCCCCCc1cn(CC(=O)OCC)nn1 |  |  |  |  |  |  |  | 0.5 (≈ 1.87 µM) | 
17 | COc1ccc2cc(Cn3cc(Cn4cnn(-c5ccccc5)c4=O)nn3)c(Cl)nc2c1 | 0.2 (≈ 0.447 µM) | 630 | 1.6 (≈ 3.57 µM) | 3.12 (≈ 6.97 µM) | 0.2 (≈ 0.447 µM) | 0.2 (≈ 0.447 µM) | 1010 (≈ 2250 µM) |  | 
18 | O=c1n(Cc2cn(Cc3cc4ccccc4nc3Cl)nn2)cnn1-c1ccccc1 | 0.2 (≈ 0.479 µM) | 26.2 | 25 (≈ 59.8 µM) | 3.12 (≈ 7.47 µM) | 0.2 (≈ 0.479 µM) | 0.2 (≈ 0.479 µM) | 655 (≈ 1570 µM) |  | 
19 | O=C(N/N=C/c1cn(-c2ccc(Cl)cc2)nn1)c1ccncc1 |  |  |  |  |  |  |  |  | 0.62 (≈ 1.9 µM)
20 | O=c1n(Cc2cn(Cc3cc4ccc(Cl)cc4nc3Cl)nn2)cnn1-c1ccccc1 | 0.2 (≈ 0.442 µM) | 34.8 | 25 (≈ 55.3 µM) | 3.12 (≈ 6.9 µM) | 0.2 (≈ 0.442 µM) | 0.2 (≈ 0.442 µM) | 869 (≈ 1920 µM) |  | 
